# Laboratory results reported in patent publication US20060216342A1, “Micelle delivery system loaded with a pharmaceutical agent” (priority 2003, published 2006).
# Key:
# LLC tumors = assay: Inhibition of LLC tumor growth in mice with different taxol preparations; assay type: in vivo; conditions: ca. 100 μg taxol per injection, two injections, twenty days after first injection, untreated 2.00±0.60 g
# Description: Inhibition of tumor growth with different taxol preparations. Mice with LLC tumors were injected with different taxol formulations on day 10 post inoculation (ca. 100 μg of taxol per animal per injection). On day 5 after the first administration, the injections were repeated. Twenty days after the first injection, the mice were sacrificed; tumors extracted, rinsed twice with saline, wiped, and weighed. There were five mice in each experimental group.
# [1] = Encapsulation of tamoxifen into PEG-PE micelles; assay type: physicochemical; conditions: drug/PEG-PE molar ratio 1:1, after 0.22 μm filtration
# Description: Tamoxifen dissolved in methanol was added to the solution of PEG-PE in chloroform to obtain the drug/PEG-PE molar ratio of 1:1. Organic solvents were evaporated and micelles were formed by shaking the tamoxifen/PE-PEG film obtained in the presence of an aqueous buffer at 50° C. Free tamoxifen was removed by filtration through 0.22 μm filters. Tamoxifen was quantified using the assay procedure for diethylstilbesterol (United States Pharmacopeal Convention, 2000).
# [2] = Micelle size by dynamic light scattering and freeze-fracture electron microscopy; assay type: physicochemical; conditions: PEG-PE micelles with vs without tamoxifen
# Description: When required, 0.5 ml of a 12 μM solution of 2C5 or 2G4 in borate, pH 9.0 was added to 0.5 ml of pNP-PEG-PE-containing micelles with a PEG-PE concentration of 1.5 mM. The mixture was incubated for 3 h at room temperature (RT) and dialyzed against HBS, using cellulose ester membranes with a cut-off size of 300,000 Da (Spectrum Medical Industries, Rancho Dominguez, Calif.). To assess the quantity of the micelle-bound protein, CF-labeled antibody was used. Protein concentration was measured by associated fluorescence at an excitation wavelength of 490 nm and an emission of 520 nm on a F-2000 spectrofluorimeter (Hitachi, Japan). The micelle size was measured by dynamic light scattering using a N4 Plus Submicron Particle System (Coulter Corporation, Miami, Fla.) at PEG-PE concentration of 2-10 mM.
# Freeze-fracture electron microscopy. The sample was quenched using the sandwich technique and liquid nitrogen-cooled propane. A cooling rate of 10,000K/sec avoids ice crystal formation and cryofixation-caused artifacts. The fracturing process was carried out in JEOL JED-9000 freeze-etching equipment (Jeol, Peabody, Mass.) and the exposed fracture planes were shadowed with Pt for 30 sec at an angle of 25-35 degrees followed with carbon for 35 sec (2 kV, 60-70 mA, 1×10^−5 Torr). […]
# [3] = Incorporation of porphyrin into PEG-PE micelles; assay type: physicochemical
# Description: Porphyrin dissolved in methanol was added to a solution of PEG-PE in chloroform to obtain various final ratios of components. Organic solvents were removed under vacuum. Micelles were formed by shaking the PEG-PE/porphyrin film obtained in the presence of an aqueous buffer. Excess of porphyrin not incorporated into the micelles was separated by filtration of the micelle suspension through 0.2 μm filter. Concentration of porphyrin in micellar phase was estimated following the fluorescence at the excitation wavelength of […] and the emission wavelength of 674 nm (F635/674) after 100-200-fold dilution of the samples in methanol.
compound,measurement,setting,value
"CC(=O)O[C@H]1C(=O)[C@@]2(C)[C@H]([C@H](OC(=O)c3ccccc3)[C@]3(O)C[C@H](OC(=O)[C@H](O)[C@@H](NC(=O)c4ccccc4)c4ccccc4)C(C)=C1C3(C)C)[C@]1(OC(C)=O)CO[C@@H]1C[C@@H]2O [free taxol, paclitaxel]",average weight of excised tumors,LLC tumors,1.58 ± 0.48 g
CC/C(=C(\c1ccccc1)c1ccc(OCCN(C)C)cc1)c1ccccc1 [tamoxifen],tamoxifen incorporated into PEG-PE micelles,[1],more than 95%
same,effect of drug incorporation on micelle size,[2],does not change the size of the micelles significantly
chlorin e6 trimethyl ester [porphyrin],efficiency of incorporation into micelles,[3]; initial porphyrin/PEG-PE weight ratio of 1/2,about 80%
same,efficiency of incorporation into micelles,[3]; initial porphyrin/PEG-PE weight ratio of up to 1/5,~100%
same,drug/PEG-PE in the resultant micelles,[3]; initial weight ratio of 1/2,2/5
